Kd and EC50 data for 10 molecules are collected here from ChEMBL document CHEMBL1127727, “Synthesis and structure-activity relationships of novel retinoid X receptor-selective retinoids” (J Med Chem, 1994).

The Kd is the equilibrium constant for the complex coming apart. Read a high Kd as lower affinity. Broadly, the EC50 is the concentration giving half of the maximal effect. Higher therefore signals weaker potency.

Structures are written as SMILES.

In experiment [1] the target is T1, Retinoic acid receptor RXR-beta (Mus musculus, UniProt P28704).
T1 sequence (P28704 whole entry): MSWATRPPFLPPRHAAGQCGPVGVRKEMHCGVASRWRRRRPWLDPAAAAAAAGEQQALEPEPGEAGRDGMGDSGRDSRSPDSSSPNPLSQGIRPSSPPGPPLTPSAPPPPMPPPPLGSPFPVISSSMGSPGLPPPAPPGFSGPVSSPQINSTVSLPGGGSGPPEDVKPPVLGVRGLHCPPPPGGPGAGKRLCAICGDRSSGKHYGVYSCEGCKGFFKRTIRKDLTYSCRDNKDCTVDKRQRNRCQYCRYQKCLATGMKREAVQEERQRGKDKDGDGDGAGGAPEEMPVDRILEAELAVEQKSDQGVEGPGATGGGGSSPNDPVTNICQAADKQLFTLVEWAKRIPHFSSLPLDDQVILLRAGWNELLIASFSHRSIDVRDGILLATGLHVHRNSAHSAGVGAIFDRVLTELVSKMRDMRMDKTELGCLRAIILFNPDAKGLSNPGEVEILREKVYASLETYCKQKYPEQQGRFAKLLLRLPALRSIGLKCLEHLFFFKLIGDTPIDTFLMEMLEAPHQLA
As to the kind of experiment: Inhibition of [3H]9-cis-RA binding to baculovirus expressed retinoid receptor RXR beta.

Experiment [2] deals with T2, Retinoic acid receptor alpha (Homo sapiens, UniProt P10276).
T2 sequence (P10276 whole entry): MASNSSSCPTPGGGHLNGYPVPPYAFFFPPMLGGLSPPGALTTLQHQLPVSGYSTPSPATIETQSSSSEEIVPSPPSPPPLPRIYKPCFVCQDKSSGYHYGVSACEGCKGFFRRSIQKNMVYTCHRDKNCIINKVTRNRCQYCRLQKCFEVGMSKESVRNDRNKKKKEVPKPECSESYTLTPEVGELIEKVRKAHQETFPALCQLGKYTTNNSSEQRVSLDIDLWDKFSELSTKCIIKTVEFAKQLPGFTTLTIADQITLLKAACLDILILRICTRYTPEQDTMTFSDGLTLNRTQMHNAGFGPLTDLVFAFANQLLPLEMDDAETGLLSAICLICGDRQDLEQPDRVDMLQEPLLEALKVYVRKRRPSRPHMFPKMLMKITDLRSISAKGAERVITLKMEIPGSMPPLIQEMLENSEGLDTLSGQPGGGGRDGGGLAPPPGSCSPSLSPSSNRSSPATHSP
Briefly: Inhibition of [3H]-ATRA binding to baculovirus expressed retinoid receptor RAR alpha.

In experiment [3] the target is T3, Retinoic acid receptor gamma (Homo sapiens, UniProt P13631).
T3 sequence (P13631 whole entry): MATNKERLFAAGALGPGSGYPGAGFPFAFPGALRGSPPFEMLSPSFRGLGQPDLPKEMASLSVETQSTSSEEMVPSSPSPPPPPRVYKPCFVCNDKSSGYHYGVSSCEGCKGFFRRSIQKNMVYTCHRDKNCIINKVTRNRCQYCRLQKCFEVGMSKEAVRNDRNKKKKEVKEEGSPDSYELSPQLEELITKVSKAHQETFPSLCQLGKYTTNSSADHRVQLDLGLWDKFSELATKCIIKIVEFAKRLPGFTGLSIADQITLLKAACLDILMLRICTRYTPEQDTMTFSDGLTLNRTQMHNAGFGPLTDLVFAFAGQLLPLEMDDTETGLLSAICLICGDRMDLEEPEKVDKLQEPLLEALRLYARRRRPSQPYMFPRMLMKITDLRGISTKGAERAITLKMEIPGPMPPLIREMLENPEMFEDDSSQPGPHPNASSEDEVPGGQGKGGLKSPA
As to the kind of experiment: Effective concentration against retinoid receptor isoform (RAR gamma) expressed in CV-1 cells. In kind it is cell-based.

The target in experiment [4] is T3, Retinoic acid receptor gamma. Briefly: Tested for binding affinity against [3H]-ATRA binding to retinoid receptor isoform (RAR gamma) expressed in baculovirus.
The target of experiment [5] is T4, Retinoic acid receptor RXR-alpha (Homo sapiens, UniProt P19793).
T4 sequence (P19793 whole entry): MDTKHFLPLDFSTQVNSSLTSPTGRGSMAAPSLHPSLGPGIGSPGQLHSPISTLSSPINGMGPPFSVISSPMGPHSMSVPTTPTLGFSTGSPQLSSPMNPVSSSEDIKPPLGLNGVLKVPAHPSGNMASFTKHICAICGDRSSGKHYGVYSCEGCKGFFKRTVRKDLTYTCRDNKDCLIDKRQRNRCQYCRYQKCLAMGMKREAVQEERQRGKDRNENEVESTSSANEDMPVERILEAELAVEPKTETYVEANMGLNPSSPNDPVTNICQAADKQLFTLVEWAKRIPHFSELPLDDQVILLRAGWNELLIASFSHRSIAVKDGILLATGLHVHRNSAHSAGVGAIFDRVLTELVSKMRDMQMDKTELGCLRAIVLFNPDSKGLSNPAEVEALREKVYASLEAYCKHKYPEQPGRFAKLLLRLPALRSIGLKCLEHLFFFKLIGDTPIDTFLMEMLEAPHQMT
Description: Effective concentration against retinoid receptor isoform (RXR alpha) expressed in CV-1 cells

Experiment [6] addresses T1, Retinoic acid receptor RXR-beta. Briefly: Effective concentration against retinoid receptor isoform (RXR beta) expressed in CV-1 cells. The format is cell-based.
Experiment [7] concerns the target T4, Retinoic acid receptor RXR-alpha. The source holds these as a separate data set.
Description: Inhibition of [3H]9-cis-RA binding to baculovirus expressed retinoid receptor RXR alpha
Experiment [8] addresses T5, Retinoic acid receptor beta (Homo sapiens, UniProt P10826).
T5 sequence (P10826 whole entry): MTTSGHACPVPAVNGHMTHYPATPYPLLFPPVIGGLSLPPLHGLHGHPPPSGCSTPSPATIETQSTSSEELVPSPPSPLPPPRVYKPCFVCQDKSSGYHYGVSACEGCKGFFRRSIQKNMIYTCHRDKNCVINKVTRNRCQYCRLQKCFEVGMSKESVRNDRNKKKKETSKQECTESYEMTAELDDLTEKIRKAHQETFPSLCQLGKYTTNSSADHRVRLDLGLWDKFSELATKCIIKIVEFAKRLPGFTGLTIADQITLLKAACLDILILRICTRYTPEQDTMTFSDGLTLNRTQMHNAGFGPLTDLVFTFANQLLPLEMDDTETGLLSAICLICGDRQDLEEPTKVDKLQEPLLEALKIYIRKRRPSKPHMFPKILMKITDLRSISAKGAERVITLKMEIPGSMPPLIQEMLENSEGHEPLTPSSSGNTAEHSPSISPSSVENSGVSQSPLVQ
As to the kind of experiment: Effective concentration against retinoid receptor isoform (RAR beta) expressed in CV-1 cells. In kind it is cell-based.

Experiment [9] addresses T6, Retinoic acid receptor RXR-gamma (Mus musculus, UniProt P28705).
T6 sequence (P28705 whole entry): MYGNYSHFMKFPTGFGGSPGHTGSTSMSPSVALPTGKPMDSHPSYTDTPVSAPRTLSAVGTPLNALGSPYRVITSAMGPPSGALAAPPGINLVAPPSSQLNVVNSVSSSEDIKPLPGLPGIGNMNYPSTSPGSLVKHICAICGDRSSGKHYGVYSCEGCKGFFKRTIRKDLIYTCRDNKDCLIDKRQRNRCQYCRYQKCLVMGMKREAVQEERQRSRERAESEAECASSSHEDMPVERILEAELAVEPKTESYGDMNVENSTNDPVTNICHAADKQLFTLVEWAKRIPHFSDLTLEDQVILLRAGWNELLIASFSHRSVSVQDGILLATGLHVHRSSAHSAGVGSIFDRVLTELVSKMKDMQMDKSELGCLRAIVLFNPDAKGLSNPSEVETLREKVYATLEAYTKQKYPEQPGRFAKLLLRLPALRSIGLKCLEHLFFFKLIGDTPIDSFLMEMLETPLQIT
As to the kind of experiment: Inhibition of [3H]9-cis-RA binding to baculovirus expressed retinoid receptor RXR gamma.

The target of experiment [10] is T2, Retinoic acid receptor alpha. As to the kind of experiment: Effective concentration against retinoid receptor isoform (RAR alpha) expressed in CV-1 cells. In kind it is cell-based.
In experiment [11] the target is T6, Retinoic acid receptor RXR-gamma. Briefly: Effective concentration against retinoid receptor isoform (RXR gamma) expressed in CV-1 cells. In kind it is cell-based.
Experiment [12] deals with T5, Retinoic acid receptor beta. Briefly: Inhibition of [3H]ATRA binding to baculovirus expressed retinoid receptor RAR beta.

Regarding `C=C(c1ccc(C(=O)O)cc1)c1cc2c(cc1CCC)C(C)(C)CCC2(C)C`, the Kd is 236 nM in experiment [1]; above 1000 nM in experiment [2]; above 1000 nM in [4]; 137 nM in experiment [7]; 332 nM in [9]; above 1000 nM in experiment [12]. In addition, the EC50 in [3], in [5], in experiment [6], in experiment [8], in [10] and in experiment [11] was above 10000 nM in each case.
On to `CCCc1cc2c(cc1C(=O)c1ccc(C(=O)O)cc1)C(C)(C)CCC2(C)C`, for which the Kd in experiment [1] is 371 nM; in [2], above 1000 nM; in [4] it was above 1000 nM; in experiment [7], 269 nM; in experiment [9] it was 704 nM; in experiment [12] it was above 1000 nM. Moreover, the EC50 in [3], in experiment [5], in experiment [6], in experiment [8], in experiment [10] and in experiment [11] was above 10000 nM in each case.
In the case of `C=C(c1ccc(C(=O)O)cc1)c1cc2c(cc1C(C)C)C(C)(C)CCC2(C)C`, the Kd in [1] is 75 nM; in [2] it was above 1000 nM; in experiment [4], above 1000 nM; in experiment [7] it was 55 nM; in experiment [9], 142 nM; in [12], above 1000 nM. The EC50 was above 10000 nM in [3]; 207 nM in experiment [5]; 289 nM in [6]; above 10000 nM in [8]; above 10000 nM in experiment [10]; 227 nM in experiment [11].
Consider `C=C(c1ccc(C(=O)O)cc1)c1cc2c(cc1Br)C(C)(C)CCC2(C)C`, for which the Kd is 34 nM in experiment [1]; above 1000 nM in experiment [2]; above 1000 nM in [4]; 28 nM in experiment [7]; 35 nM in [9]; above 1000 nM in experiment [12]. In addition, the EC50 in [3] is above 10000 nM; in [5] it was 51 nM; in experiment [6], 59 nM; in experiment [8] it was above 10000 nM; in experiment [10], above 10000 nM; in experiment [11], 43 nM.
Regarding `C=C(c1ccc(C(=O)O)cc1)c1cc2c(cc1Cl)C(C)(C)CCC2(C)C`, the Kd in experiment [1] is 44 nM; in [2] it was above 1000 nM; in [4], above 1000 nM; in experiment [7], 27 nM; in experiment [9], 44 nM; in experiment [12], above 1000 nM. Besides, the EC50 in experiment [3] is 1450 nM; in [5], 52 nM; in experiment [6], 33 nM; in experiment [8] it was 436 nM; in [10] it was above 10000 nM; in [11], 36 nM.
As for `CC1(C)CCC(C)(C)c2cc(C(=O)c3ccc(C(=O)O)cc3)c(O)cc21`, the Kd in [1] was above 1000 nM; in experiment [2], above 1000 nM; in [4], above 1000 nM; in experiment [7] it was 818 nM; in [9] it was above 1000 nM; in experiment [12], above 1000 nM. For the same molecule, the EC50 in [3], in experiment [5], in experiment [6], in [8], in experiment [10] and in experiment [11] was above 10000 nM throughout.
As to `CC1(C)CCC(C)(C)c2cc(C(=O)c3ccc(C(=O)O)cc3)c(F)cc21`, the Kd was 902 nM in [1]; above 1000 nM in experiment [2]; above 1000 nM in experiment [4]; 706 nM in experiment [7]; 911 nM in [9]; above 1000 nM in [12]. The EC50 in experiment [3] is 1020 nM; in experiment [5], 1820 nM; in [6], 1980 nM; in [8], 395 nM; in experiment [10], 2860 nM; in experiment [11] it was 2250 nM.
For the molecule `C=C(c1ccc(C(=O)O)cc1)c1cc2c(cc1O)C(C)(C)CCC2(C)C`, the Kd in experiment [1] was 822 nM; in [2], above 1000 nM; in experiment [4], above 1000 nM; in experiment [7], 487 nM; in experiment [9] it was 812 nM; in [12], above 1000 nM. The EC50 in experiment [3] is above 10000 nM; in experiment [5], 455 nM; in experiment [6], 202 nM; in [8] it was 2240 nM; in experiment [10], above 10000 nM; in experiment [11], 558 nM.
For the molecule `CC1(C)CCC(C)(C)c2cc(C(=O)c3ccc(C(=O)O)cc3)c(Cl)cc21`, the dissociation constant Kd in experiment [1] was 110 nM; in [2], above 1000 nM; in [4], above 1000 nM; in experiment [7], 130 nM; in experiment [9], 135 nM; in experiment [12], above 1000 nM. In addition, the EC50 in experiment [3] is above 10000 nM; in [5], 294 nM; in [6], 262 nM; in experiment [8], above 10000 nM; in [10], above 10000 nM; in experiment [11], 225 nM.
In the case of `CCc1cc2c(cc1C(=O)c1ccc(C(=O)O)cc1)C(C)(C)CCC2(C)C`, the equilibrium dissociation constant (Kd) in [1] is 232 nM; in experiment [2], above 1000 nM; in experiment [4], above 1000 nM; in [7], 195 nM; in experiment [9] it was 424 nM; in experiment [12], above 1000 nM. In addition, the EC50 is above 10000 nM in experiment [3]; 514 nM in experiment [5]; 810 nM in [6]; above 10000 nM in [8]; above 10000 nM in [10]; 384 nM in [11].
